Measurements from US12447156B2, “Treating progressive familial intrahepatic cholestasis (PFIC) with IBAT inhibitors” (ALBIREO AB, priority 2020, dated 2025).

Columns and labels:
[1] = test system: patients with PFIC with prior PEBD surgery; test: PEDFIC 1/2 post hoc subgroup: patients with prior partial external biliary diversion (PEBD); format: in vivo, human
Method: (§1) One surgical treatment option for patients with PFIC is partial external biliary diversion (PEBD), which can be used to reduce bile acid levels in patients with medically refractory pruritus. However, PEBD is not successful in all patients. […] This post hoc subgroup analysis evaluated the safety and efficacy of odevixibat in patients enrolled in the PEDFIC studies who had PEBD surgery prior to study entry.
(§2) In the double-blind PEDFIC 1 study, children with PFIC1 or PFIC2 were randomized to placebo or 40 or 120 μg/kg/day odevixibat for 24 weeks. In PEDFIC 2, an ongoing, open-label extension study, patients from PEDFIC 1 or newly enrolled patients with any PFIC subtype receive odevixibat 120 μg/kg/day. In both PEDFIC 1 and PEDFIC 2, eligible patients had elevated sBAs and significant pruritus at screening. Changes over time in sBA levels and observer-reported pruritus (range: 0-4; higher scores indicate worse symptoms), sleep parameters, and quality of life (QoL; assessed with the Pediatric Quality of Life Inventory [PedsQL]) were evaluated in the subgroup of patients from PEDFIC 1 and/or PEDFIC 2 with a medical history of PEBD surgery performed prior to study enrollment.

[2] = test system: patients with PFIC with prior PEBD surgery; test: as above; format: in vivo, human; design: key: Y: sBAs ≤70 μmol/L or reduced ≥70% at last assessment; N, no
Method: as §1, §2

[3] = Patient 1 (prior PEBD, PFIC2; PEDFIC 1 placebo, PEDFIC 2 120 μg/kg/d; 42 weeks exposure)
[4] = Patient 2 (prior PEBD, PFIC1; PEDFIC 1 placebo, PEDFIC 2 120 μg/kg/d; 35 weeks exposure)
[5] = Patient 3 (prior PEBD, PFIC1; PEDFIC 1 40 μg/kg/d, PEDFIC 2 120 μg/kg/d; 44 weeks exposure)
[6] = Patient 4 (prior PEBD, PFIC1; PEDFIC 1 40 μg/kg/d, PEDFIC 2 120 μg/kg/d; 55 weeks exposure)
[7] = Patient 5 (prior PEBD, PFIC2; 120 μg/kg/d in PEDFIC 1 and 2; 53 weeks exposure)
[8] = Patient 6 (prior PEBD, PFIC2; 120 μg/kg/d in PEDFIC 1 and 2; 44 weeks exposure)
[9] = Patient 7 (prior PEBD, PFIC2; 120 μg/kg/d in PEDFIC 1 and 2; 54 weeks exposure, discontinued)
[10] = Patient 8 (prior PEBD, PFIC1; 120 μg/kg/d in PEDFIC 1 and 2; 47 weeks exposure)
[11] = Patient 9 (prior PEBD, PFIC1; PEDFIC 2 only, 120 μg/kg/d; 25 weeks exposure)
[12] = of 10 patients with prior PEBD surgery

Structure (SMILES): CCCCC1(CCCC)CN(c2ccccc2)c2cc(SC)c(OCC(=O)N[C@@H](C(=O)N[C@@H](CC)C(=O)O)c3ccc(O)cc3)cc2S(=O)(=O)N1 [Odevixibat, 1,1-dioxo-3,3-dibutyl-5-phenyl-7-methylthio-8-(N-{(R)-α-[N-((S)-1-carboxypropyl)carbamoyl]-4-hydroxybenzyl}carbamoylmethoxy)-2,3,4,5-tetrahydro-1,2,5-benzothiadiazepine]
- Pruritus Responder? [1, 3]: N (N, no)
- Change From Baseline in Pruritus Score ([1]; Patient 1 (prior PEBD, PFIC2; PEDFIC 1 placebo, PEDFIC 2 120 μg/kg/d; 42 weeks exposure), baseline 1.9): 0.1
- Change From Baseline in sBAs ([1]; Patient 1 (prior PEBD, PFIC2; PEDFIC 1 placebo, PEDFIC 2 120 μg/kg/d; 42 weeks exposure), baseline 172): -18 µmol/L
- Pruritus Responder? [1, 4]: N (N, no)
- Change From Baseline in Pruritus Score ([1]; Patient 2 (prior PEBD, PFIC1; PEDFIC 1 placebo, PEDFIC 2 120 μg/kg/d; 35 weeks exposure), baseline 3.8): −0.9
- Change From Baseline in sBAs ([1]; Patient 2 (prior PEBD, PFIC1; PEDFIC 1 placebo, PEDFIC 2 120 μg/kg/d; 35 weeks exposure), baseline 225): -69.5 µmol/L
- Pruritus Responder? [1, 5]: Y (≥1-point drop in pruritus score at last assessment)
- Change From Baseline in Pruritus Score ([1]; Patient 3 (prior PEBD, PFIC1; PEDFIC 1 40 μg/kg/d, PEDFIC 2 120 μg/kg/d; 44 weeks exposure), baseline 3.0): −2.1
- Change From Baseline in sBAs ([1]; Patient 3 (prior PEBD, PFIC1; PEDFIC 1 40 μg/kg/d, PEDFIC 2 120 μg/kg/d; 44 weeks exposure), baseline 193): 197 µmol/L
- Pruritus Responder? [1, 6]: Y (≥1-point drop in pruritus score at last assessment)
- Change From Baseline in Pruritus Score ([1]; Patient 4 (prior PEBD, PFIC1; PEDFIC 1 40 μg/kg/d, PEDFIC 2 120 μg/kg/d; 55 weeks exposure), baseline 3.0): −1.5
- Change From Baseline in sBAs ([1]; Patient 4 (prior PEBD, PFIC1; PEDFIC 1 40 μg/kg/d, PEDFIC 2 120 μg/kg/d; 55 weeks exposure), baseline 163): -53.5 µmol/L
- Pruritus Responder? [1, 7]: N (N, no)
- Change From Baseline in Pruritus Score ([1]; Patient 5 (prior PEBD, PFIC2; 120 μg/kg/d in PEDFIC 1 and 2; 53 weeks exposure), baseline 2.8): 0.3
- Change From Baseline in sBAs ([1]; Patient 5 (prior PEBD, PFIC2; 120 μg/kg/d in PEDFIC 1 and 2; 53 weeks exposure), baseline 156.5): -11.5 µmol/L
- Pruritus Responder? [1, 8]: N (N, no)
- Change From Baseline in Pruritus Score ([1]; Patient 6 (prior PEBD, PFIC2; 120 μg/kg/d in PEDFIC 1 and 2; 44 weeks exposure), baseline 3.0): 0.0
- Change From Baseline in sBAs ([1]; Patient 6 (prior PEBD, PFIC2; 120 μg/kg/d in PEDFIC 1 and 2; 44 weeks exposure), baseline 237): 103 µmol/L
- Pruritus Responder? [1, 9]: N (N, no)
- Change From Baseline in Pruritus Score ([1]; Patient 7 (prior PEBD, PFIC2; 120 μg/kg/d in PEDFIC 1 and 2; 54 weeks exposure, discontinued), baseline 2.9): −0.3
- Change From Baseline in sBAs ([1]; Patient 7 (prior PEBD, PFIC2; 120 μg/kg/d in PEDFIC 1 and 2; 54 weeks exposure, discontinued), baseline 208): 178 µmol/L
- Pruritus Responder? [1, 10]: Y (≥1-point drop in pruritus score at last assessment)
- Change From Baseline in Pruritus Score ([1]; Patient 8 (prior PEBD, PFIC1; 120 μg/kg/d in PEDFIC 1 and 2; 47 weeks exposure), baseline 2.0): −2.1
- Change From Baseline in sBAs ([1]; Patient 8 (prior PEBD, PFIC1; 120 μg/kg/d in PEDFIC 1 and 2; 47 weeks exposure), baseline 188.5): 61.5 µmol/L
- Pruritus Responder? [1, 11]: N (N, no)
- Change From Baseline in Pruritus Score ([1]; Patient 9 (prior PEBD, PFIC1; PEDFIC 2 only, 120 μg/kg/d; 25 weeks exposure), baseline 2.0): −0.5
- Change From Baseline in sBAs ([1]; Patient 9 (prior PEBD, PFIC1; PEDFIC 2 only, 120 μg/kg/d; 25 weeks exposure), baseline 139.5): 8.5 µmol/L
- Pruritus Responder? ([1]; Patient 10 (prior PEBD, PFIC2; PEDFIC 2 only, 120 μg/kg/d; 35 weeks exposure)): Y (≥1-point drop in pruritus score at last assessment)
- Change From Baseline in Pruritus Score ([1]; Patient 10 (prior PEBD, PFIC2; PEDFIC 2 only, 120 μg/kg/d; 35 weeks exposure), baseline 2.5): −1.5
- Change From Baseline in sBAs ([1]; Patient 10 (prior PEBD, PFIC2; PEDFIC 2 only, 120 μg/kg/d; 35 weeks exposure), baseline 79.5): -70.5 µmol/L
- patients who met criteria for pruritus response (≥1-point drop) [1, 12]: 4 patients
- patients with reductions in pruritus score [1, 12]: 7 patients
- patients with reductions in sBA levels [1, 12]: 5 patients
- patients who met criteria for sBA response (reduced by ≥70% or ≤70 μmol/L) ([1]; of 10 patients with prior PEBD surgery, last assessment): 1 patient
- patients with improved observer-reported PedsQL total scores ([1]; of the 9 prior-PEBD patients with post-baseline QoL assessments): 6 patients
- tolerability ([1]; patients with prior PEBD surgery): generally well tolerated
- patients with TEAEs ([1]; prior PEBD subgroup, 9 of 10 patients, all mild to moderate): 90%
- sBA Responder? [2, 3]: N
- sBA Responder? [2, 4]: N
- sBA Responder? [2, 5]: N
- sBA Responder? [2, 6]: N
- sBA Responder? [2, 7]: N
- sBA Responder? [2, 8]: N
- sBA Responder? [2, 9]: N
- sBA Responder? [2, 10]: N
- sBA Responder? [2, 11]: N
